Reference: patent publication US4016272A, “Anthelmintic thiodiphenylamine cupric chloride complex salt” (priority 1975, dated 1977)

Tests used:
[1] = test system: helminth infestation diseases; experiment: Helminthicide action in laboratory and field conditions on farm animals; format: in vivo, sheep, cows, and other farm animals
Source text: The helminthicide action has been studied in laboratory and field conditions on sheep, cows, and other farm animals of different age and having various helminth infestation diseases. The course of treatment comprises a single oral administration of the preparation in spring and a repeated single administration in autumn. The preparation efficiency is 95 to 100% for the cured animals.

[2] = Lethal dose / toxicity in farm animals; format: in vivo; set-up: lethal dose LD50 / LD100: unit not given here
[3] = meat, milk, and wool
Source text: The known preparations are efficient only in respect to the imaginal forms of certain helminth infestation diseases. The novel preparation based on thiodiphenylamine cupric chloride complex salt is not toxic and is convinient in use.

## complex salt of thiodiphenylamine cupric chloride
[1]; pre-imaginal and imaginal forms
  efficiency for curing various helminth infestation diseases in pre-imaginal and imaginal forms: highly efficient for curing various helminth infestation diseases in pre-imaginal and imaginal forms
[1]; single oral administration in spring and repeated single administration in autumn
  preparation efficiency for the cured animals: 95 to 100%
[2]; all varieties of farm animals
  LD100: 1,200
  lethal dose LD50: 1,000
[2]; in vivo
  toxicity: not toxic
[3]
  productivity of farm animals: enhances productivity of farm animals
